Experiments:
Assay in all cases: Example B2 herbicidal action, post-emergence, pots in glasshouse, damage score 0-10
Assay type in all cases: in vivo
Details in all cases: application post-emergence, rate 1000 g/ha, evaluated after 13 days
Setaria faberi = test system: Setaria faberi
Procedure, shortened: (§1)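 Evaluation took place 13 days post-spray. Treatment used an acetone/water (50:50), 0.5% Tween 20 formulation applied to 8-day-old potted plants, held at 24/16 °C with 14 h light, 65% humidity and twice-daily watering.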

Echinochloa crus-galli = test system: Echinochloa crus-galli
Procedure, shortened: as §1

Amaranthus retroflexus = test system: Amaranthus retroflexus
Procedure, shortened: as §1

Solanum nigrum = test system: Solanum nigrum
Procedure, shortened: as §1

Ipomea hederaceae = test system: Ipomea hederaceae
Procedure, shortened: as §1

| Compound | SETFA damage score (10=total damage to plant; 0=no damage to plant) (Setaria faberi) | ECHCG damage score (10=total damage to plant; 0=no damage to plant) (Echinochloa crus-galli) | AMARE damage score (10=total damage to plant; 0=no damage to plant) (Amaranthus retroflexus) | SOLNI damage score (10=total damage to plant; 0=no damage to plant) (Solanum nigrum) | IPOHE damage score (10=total damage to plant; 0=no damage to plant) (Ipomea hederaceae) |
| --- | --- | --- | --- | --- | --- |
| CC(C)(C)C(=O)OC1=C(c2ccccc2I)S(=O)(=O)N(CC(F)F)c2nccnc21 [Compound C81] | 7 | 8 | 10 | 10 | 10 |
| CCN1c2nccnc2C(O)=C(c2c(Cl)ccc(Cl)c2C(F)(F)F)S1(=O)=O [Compound D26] | 4 | 7 | 8 | 8 | 8 |
| O=S1(=O)C(c2ccc(Cl)cc2Cl)=C(OCC(F)(F)F)c2nccnc2N1CC(F)(F)F [Compound C106, 3-(2,4-dichloro-phenyl)-4-(2,2,2-trifluoro-ethoxy)-1-(2,2,2-trifluoro-ethyl)-1H-2-thia-1,5,8-triaza-naphthalene 2,2-dioxide] | 0 | 1 | 6 | 7 | 3 |
| O=C(OC1=C(c2c(Cl)ccc(Cl)c2Cl)S(=O)(=O)N(CC(F)F)c2nccnc21)Sc1ccccc1 [Compound C126] | 4 | 7 | 9 | 9 | 7 |
| CCN1c2nccnc2C(O)=C(c2ccccc2SC(F)(F)F)S1(=O)=O [Compound D7] | 0 | 0 | 9 | 5 | 3 |
| COCN1c2nccnc2C(OC(=O)C(C)(C)C)=C(c2ccc(Cl)cc2Cl)S1(=O)=O [Compound C11] | 4 | 3 | 1 | 6 | 2 |
| CC(C)(C)C(=O)OC1=C(c2c(Cl)cccc2Cl)S(=O)(=O)N(CC(F)F)c2nccnc21 [Compound C28] | 2 | 2 | 7 | 6 | 6 |
| O=S1(=O)C(c2cc(F)c(Cl)cc2Cl)=C(O)c2nccnc2N1CC(F)F [Compound D25] | 4 | 3 | 10 | 10 | 9 |
| O=S1(=O)C(c2ccccc2C(F)(F)F)=C(O)c2nccnc2N1CC(F)F [Compound D31] | 9 | 9 | 10 | 10 | 10 |
| CS(=O)(=O)OC1=C(c2cc(C(F)(F)F)ccc2Cl)S(=O)(=O)N(CC(F)F)c2nccnc21 [Compound C83, methanesulfonic acid 3-(2-chloro-5-trifluoromethyl-phenyl)-1-(2,2-difluoro-ethyl)-2,2-dioxo-1,2-dihydro-2-λ-6-thia-1,5,8-triaza-naphthalen-4-yl ester] | 1 | 7 | 9 | 10 | 10 |
| CC(C)C(=O)OC1=C(c2ccc(Cl)cc2Cl)S(=O)(=O)N(CC(F)(F)F)c2nccnc21 [Compound C57] | 3 | 4 | 10 | 10 | 10 |
| COc1ccc(Cl)c(C2=C(OC(=O)C(C)C)c3nccnc3N(CC(F)F)S2(=O)=O)c1F [Compound C143] | 0 | 4 | 1 | 10 | 8 |
| CCSC(=O)OC1=C(c2ccccc2I)S(=O)(=O)N(CC(F)F)c2nccnc21 [Compound C82] | 8 | 9 | 10 | 10 | 10 |
| O=S1(=O)C(c2c(F)cccc2C(F)(F)F)=C(O)c2nccnc2N1CC(F)F [Compound D39] | 9 | 9 | 10 | 9 | 10 |
| O=S1(=O)C(c2c(C(F)(F)F)ccc(Cl)c2Cl)=C(O)c2nccnc2N1CC(F)F [Compound D57] | 10 | 9 | 10 | 10 | 7 |
| CCN1c2nccnc2C(OC(=O)C(C)(C)C)=C(c2cccc(C(F)(F)F)c2Cl)S1(=O)=O [Compound C76] | 0 | 0 | 0 | 3 | 0 |
| O=S1(=O)C(c2ccc(Cl)cc2Cl)=C(O)c2nccnc2N1CC(F)(F)F [Compound D51] | 1 | 2 | 7 | 8 | 7 |
| CC(C)(C)C(=O)OC1=C(c2cccc(C(F)(F)F)c2Cl)S(=O)(=O)N(CC(F)F)c2nccnc21 [Compound C74] | 3 | 4 | 7 | 6 | 7 |
| COCN1c2nccnc2C(OC(=O)C(C)C)=C(c2ccc(Cl)cc2Cl)S1(=O)=O [Compound C27] | 6 | 3 | 7 | 9 | 6 |
| CC(C)(C)C(=O)OC1=C(c2c(F)cccc2C(F)(F)F)S(=O)(=O)N(CC(F)F)c2nccnc21 [Compound C78] | 3 | 4 | 4 | 6 | 3 |
| O=S1(=O)C(c2ccc(Br)cc2C(F)(F)F)=C(O)c2nccnc2N1CC(F)F [Compound D56] | 6 | 7 | 10 | 9 | 10 |
| CCN1c2nccnc2C(O)=C(c2c(F)ccc(Cl)c2Cl)S1(=O)=O [Compound D4] | 2 | 4 | 8 | 10 | 10 |
| CCN1c2nccnc2C(OC(=O)C(C)C)=C(c2cc(Cl)ccc2C(F)(F)F)S1(=O)=O [Compound C110] | 4 | 5 | 9 | 8 | 8 |
| CC(C)C(=O)OC1=C(c2ccc(Cl)cc2Cl)S(=O)(=O)N(CCF)c2nccnc21 [Compound C58, isobutyric acid 3-(2,4-dichloro-phenyl)-1-(2-fluoroethyl)-2,2-dioxo-1,2-dihydro-2-λ-6-thia-1,5,8-triaza-naphthalen-4-yl ester] | 4 | 6 | 10 | 9 | 9 |
| CC(C)C(=O)OC1=C(c2cc(C(F)(F)F)ccc2Cl)S(=O)(=O)N(CC(F)F)c2nccnc21 [Compound C91] | 3 | 6 | 9 | 9 | 10 |

— patent publication US8133849B2, “Herbicidal compounds” (Syngenta Limited, priority 2007, dated 2012)
